Measured values: the NIST ThermoML archive (doi:10.1016/j.jct.2018.03.001)
Numbers after ± are expanded uncertainties.

Assay: molar enthalpy of vaporization or sublimation
Settings: 298.15 K; Liquid; Static calorimetry

molar enthalpy [kcal/mol]	SMILES
15.3 ± 0.932	NCCN1CCOCC1 [4-morpholineethanamine]
14.8 ± 0.86	NCCCN1CCOCC1 [N-(3-aminopropyl)morpholine]
